Source: PubChem BioAssay AID248 (DTP/NCI, 2004)
Toxic doses and inconclusive results are not listed. Rule as the data show it: active = T/C of 150% or more; inactive = T/C below 125%.

Test system: L1210 leukemia ip in BDF1 mice, survival T/C
Assay: NCI In Vivo Anticancer Drug Screen. Data for tumor model L1210 Leukemia (intraperitoneal) in B6D2F1 (BDF1) mice
Settings: endpoint: mean survival time, higher = longer survival
How it was run: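 Mice bearing the transplanted tumor received compound or vehicle. Survival of the treated group was divided by that of the vehicle-treated control group to give the ratio.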

[1] = dose: 100.0 mg/kg/injection, schedule: Q01DX001 (ip), vehicle: carboxymethylcellulose (CMC)
[2] = dose: 200.0 mg/kg/injection, schedule: Q01DX001 (ip), vehicle: carboxymethylcellulose (CMC)
[3] = dose: 400.0 mg/kg/injection, schedule: Q01DX001 (ip), vehicle: carboxymethylcellulose (CMC)
[4] = dose: 100.0 mg/kg/injection, schedule: Q01DX009 (ip), vehicle: Klucel (hydroxypropylcellulose) (HPC)
[5] = dose: 100.0 mg/kg/injection, schedule: Q04DX003 (ip), vehicle: Klucel (hydroxypropylcellulose) (HPC)
[6] = dose: 200.0 mg/kg/injection, schedule: Q01DX009 (ip), vehicle: Klucel (hydroxypropylcellulose) (HPC)
[7] = dose: 200.0 mg/kg/injection, schedule: Q04DX003 (ip), vehicle: Klucel (hydroxypropylcellulose) (HPC)
[8] = dose: 400.0 mg/kg/injection, schedule: Q01DX009 (ip), vehicle: Klucel (hydroxypropylcellulose) (HPC)
[9] = dose: 400.0 mg/kg/injection, schedule: Q04DX003 (ip), vehicle: Klucel (hydroxypropylcellulose) (HPC)
[10] = dose: 100.0 mg/kg/injection, schedule: Q04DX003 (ip), vehicle: saline
[11] = dose: 200.0 mg/kg/injection, schedule: Q04DX003 (ip), vehicle: saline
[12] = dose: 400.0 mg/kg/injection, schedule: Q04DX003 (ip), vehicle: saline
[13] = dose: 100.0 mg/kg/injection, schedule: Q01DX001 (ip), vehicle: saline

Measured: T/C

Nc1cccc(CC(=O)Nc2ccccc2)c1
inactive: dose: 100.0 mg/kg/injection, schedule: Q01DX009 (ip), vehicle: alcohol 93 % of control | dose: 100.0 mg/kg/injection, schedule: Q04DX003 (ip), vehicle: alcohol 97 % of control | dose: 200.0 mg/kg/injection, schedule: Q01DX009 (ip), vehicle: alcohol 105 % of control | dose: 200.0 mg/kg/injection, schedule: Q04DX003 (ip), vehicle: alcohol 100 % of control | dose: 400.0 mg/kg/injection, schedule: Q01DX009 (ip), vehicle: alcohol 103 % of control | dose: 400.0 mg/kg/injection, schedule: Q04DX003 (ip), vehicle: alcohol 100 % of control

CCC(=O)OC1(c2ccccc2)CCN(CC2CC2)CC1C (stereo not drawn)
inactive: dose: 20.0 mg/kg/injection, schedule: Q04DX003 (ip), vehicle: saline 105 % of control | dose: 40.0 mg/kg/injection, schedule: Q04DX003 (ip), vehicle: saline 111 % of control | dose: 80.0 mg/kg/injection, schedule: Q04DX003 (ip), vehicle: saline 91 % of control

C#CCCCc1ccccc1
inactive: dose: 50.0 mg/kg/injection, schedule: Q01DX001 (ip), vehicle: carboxymethylcellulose (CMC) 102 % of control | [1] 98 % of control | [2] 96 % of control | [3] 96 % of control

O=[N+]([O-])c1cccc(N=P(c2ccccc2)(c2ccccc2)c2ccccc2)c1
inactive: [4] 95 % of control | [5] 117 % of control | [6] 95 % of control | [7] 95 % of control | [8] 88 % of control | [9] 88 % of control

COC(=O)c1ccccc1NC(=O)Nc1cccc(F)c1
inactive: [4] 95 % of control | [6] 101 % of control | [8] 113 % of control

O=C(Nc1cccc(-c2nc3ccccc3[nH]2)c1)c1ccc(C(=O)Nc2cccc(-c3nc4ccccc4[nH]3)c2)cc1
inactive: dose: 15.0 mg/kg/injection, schedule: Q01DX Z (ip), vehicle: carboxymethylcellulose (CMC) 91 % of control | dose: 30.0 mg/kg/injection, schedule: Q01DX Z (ip), vehicle: carboxymethylcellulose (CMC) 90 % of control | dose: 60.0 mg/kg/injection, schedule: Q01DX Z (ip), vehicle: carboxymethylcellulose (CMC) 87 % of control | dose: 120.0 mg/kg/injection, schedule: Q01DX Z (ip), vehicle: carboxymethylcellulose (CMC) 86 % of control | dose: 125.0 mg/kg/injection, schedule: Q01DX Z (ip), vehicle: water 95 % of control | dose: 250.0 mg/kg/injection, schedule: Q01DX Z (ip), vehicle: water 96 % of control | dose: 500.0 mg/kg/injection, schedule: Q01DX Z (ip), vehicle: water 112 % of control

O=C(Nc1ccc(Cl)cc1)Oc1ccc2ccccc2c1
inactive: [10] 103 % of control | [11] 92 % of control | [12] 97 % of control

CN1CCC/C1=N\c1nn[nH]n1
inactive: dose: 100.0 mg/kg/injection, schedule: Q01DX001 (ip), vehicle: Klucel (hydroxypropylcellulose) (HPC) 106 % of control | dose: 200.0 mg/kg/injection, schedule: Q01DX001 (ip), vehicle: Klucel (hydroxypropylcellulose) (HPC) 97 % of control | dose: 400.0 mg/kg/injection, schedule: Q01DX001 (ip), vehicle: Klucel (hydroxypropylcellulose) (HPC) 93 % of control

COCC1OC(OC)C(NC(C)=O)C(OC)C1OC (stereo not drawn)
inactive: [13] 101 % of control | dose: 200.0 mg/kg/injection, schedule: Q01DX001 (ip), vehicle: saline 101 % of control | dose: 400.0 mg/kg/injection, schedule: Q01DX001 (ip), vehicle: saline 96 % of control

CCCCCC1SC1CC1SC1CCCCCCCC(=O)N(CCCC)CCCC (stereo not drawn)
inactive: dose: 30.0 mg/kg/injection, schedule: Q01DX001 (ip), vehicle: saline 102 % of control | [13] 96 % of control | dose: 300.0 mg/kg/injection, schedule: Q01DX001 (ip), vehicle: saline 89 % of control

O=C(O)c1cc(Br)c(OCc2ccccc2)c(Br)c1
inactive: dose: 100.0 mg/kg/injection, schedule: Q01DX001 (ip), vehicle: saline with Tween-80 101 % of control | dose: 200.0 mg/kg/injection, schedule: Q01DX001 (ip), vehicle: saline with Tween-80 104 % of control | dose: 400.0 mg/kg/injection, schedule: Q01DX001 (ip), vehicle: saline with Tween-80 104 % of control

Cc1cccc(NC(=O)c2cccc(C(=O)Nc3cccc(C)c3C)c2)c1C
inactive: [4] 96 % of control | [5] 88 % of control | [6] 100 % of control | [7] 88 % of control | [8] 96 % of control | [9] 93 % of control

COc1ccc(Oc2cc(OC)ccc2Oc2ccccc2)cc1
inactive: [1] 97 % of control | [2] 105 % of control | [3] 110 % of control

CC(C)(C)c1ccc(CBr)cc1
inactive: dose: 25.0 mg/kg/injection, schedule: Q04DX002 (ip), vehicle: Klucel (hydroxypropylcellulose) (HPC) 102 % of control | dose: 50.0 mg/kg/injection, schedule: Q04DX002 (ip), vehicle: Klucel (hydroxypropylcellulose) (HPC) 94 % of control | dose: 100.0 mg/kg/injection, schedule: Q04DX002 (ip), vehicle: Klucel (hydroxypropylcellulose) (HPC) 94 % of control

S=C(Nc1ccc(Br)cc1)NC1CCCCC1
inactive: dose: 75.0 mg/kg/injection, schedule: Q01DX001 (ip), vehicle: other 88 % of control | dose: 150.0 mg/kg/injection, schedule: Q01DX001 (ip), vehicle: other 93 % of control | dose: 300.0 mg/kg/injection, schedule: Q01DX001 (ip), vehicle: other 95 % of control

CCOC(=O)C1C(=O)C(=O)N2CCCC12 (stereo not drawn)
inactive: [10] 107 % of control | [11] 96 % of control | [12] 98 % of control

ClCCNCc1cccc(Nc2ccnc3cc(Cl)ccc23)c1
inactive: dose: 75.0 mg/kg/injection, schedule: Q01DX001 (ip), vehicle: carboxymethylcellulose (CMC) 103 % of control | dose: 150.0 mg/kg/injection, schedule: Q01DX001 (ip), vehicle: carboxymethylcellulose (CMC) 95 % of control

NC(N)=N/N=C(/c1ccccc1)c1ccc(N)cc1
inactive: dose: 3.5 mg/kg/injection, schedule: Q01DX Z (oral), vehicle: carboxymethylcellulose (CMC) 102 % of control | dose: 75.0 mg/kg/injection, schedule: Q01DX Z (oral), vehicle: carboxymethylcellulose (CMC) 102 % of control | dose: 150.0 mg/kg/injection, schedule: Q01DX Z (oral), vehicle: carboxymethylcellulose (CMC) 98 % of control | dose: 300.0 mg/kg/injection, schedule: Q01DX Z (oral), vehicle: carboxymethylcellulose (CMC) 104 % of control
